# Measurements from ChEMBL document CHEMBL1268826, “Discovery of the inhibitors of tumor necrosis factor alpha with structure-based virtual screening” (Bioorg Med Chem Lett, 2010).
# Biological target: T1, Tumor necrosis factor (Mus musculus) (UniProt P06804)
# T1 sequence (whole entry): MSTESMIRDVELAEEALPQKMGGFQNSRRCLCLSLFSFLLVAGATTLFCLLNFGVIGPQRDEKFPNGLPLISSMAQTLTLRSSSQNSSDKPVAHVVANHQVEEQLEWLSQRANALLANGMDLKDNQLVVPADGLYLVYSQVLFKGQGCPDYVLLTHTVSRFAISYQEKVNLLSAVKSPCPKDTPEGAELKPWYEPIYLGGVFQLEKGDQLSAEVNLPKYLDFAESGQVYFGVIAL
# Test: Inhibition of TNFalpha in LPS-stimulated mouse RAW264.7 cells at 10 uM after 2 hrs treated after 14 hrs of LPS challenge by FACS analysis
# Format: cell-based
row,SMILES,inhibition [%]
1,Cc1cccc(N2C(=O)NC(=O)/C(=C/c3ccc(-c4ccc(C(=O)O)c(Cl)c4)o3)C2=O)c1,64
2,O=C1NC(=O)N(c2ccccc2)C(=O)/C1=C\c1ccccc1OCc1ccccc1Cl,47.9
3,O=c1cc(-c2ccccc2)oc2cc(O)c(O)c(O)c12,71.3
4,NC(=O)c1cc(-c2csc(C3COc4ccccc4O3)n2)ccc1OCc1ccccc1 (stereo unspecified),52.6
5,c1ccc(-n2ncc3c(NCCN4CCCCC4)ncnc32)cc1,45.8
6,O=C1NC(=O)N(c2ccc3c(c2)OCO3)C(=O)/C1=C\c1cn(Cc2ccccc2Cl)c2ccccc12,54.6
